The values that follow come from US9505779B2 (EWHA University—Industry Collaboration Foundation, priority 2010, dated 2016).

In assay [1] the test system is human neuroblastoma SH-SY5Y cells. The assay is described as follows: In vitro neurite outgrowth assay using human neuroblastoma cells. In kind it is cell-based. To be noted: for neurite processes compared with cells treated with NGF alone (micrographs, FIG. 8) / neurite outgrowth activity: SH-SY5Y; for neurite processes compared with cells treated with NGF alone (micrographs, FIG. 8): NGF plus 1 nM compound, after 96 h of cultivation; for neurite outgrowth activity: NGF. As to the method:
The relative nerve regeneration activities of the mutasynthetic analogues, 36-methyl-FK506 and 36-fluoro-FK520, compared with authentic K506 and FK520, were determined using human neuroblastoma cells. […] The cells (n=90) were randomly photographed after 96 hr of cultivation, then the number of cells with outgrowth was counted. The neurite lengths were measured on photographic prints. Duplicate wells were run in all experiments, and the entire experiment was replicated three times. Neurite length estimated from samples treated with NGF alone was used as a control (FIGS. 7 and 8).
(§1) For statistical comparisons of group differences, especially for both the T cell activation and neurite outgrowth assays, quantitative data were analyzed by one-way analysis of variance (ANOVA) followed by Fisher's t-test according to the statistical program SigmaStat® (Jandel Scientific; version 3.1).

Assay [2] deals with CD3/CD28-stimulated human T lymphocytes. The assay is described as follows: In vitro T-cell activation assay (interleukin-2 secretion, ELISA). To be noted: human T-cells activated with CD3/CD28 antibodies, 0.1 and 1.0 nM compound, 16 to 20 hr; for in vitro immunosuppressive activity (interleukin-2 secreted from activated T-cells) as compared with the control group: control = activated cells without compound. In kind it is cell-based. As to the method: After removal of cell debris by routine centrifugation, the supernatant was subjected to ELISA (R&D Systems) to quantify the level of interleukin-2 secreted from activated T-cells. The level of interleukin-2 obtained from T cells activated with CD3/CD28 without further treatment with the above compounds was used as a control (FIG. 7).
as §1

“Also recorded” adds a separate entry of the source.

Take `C=CC[C@@H]1/C=C(\C)C[C@H](C)C[C@H](OC)[C@H]2O[C@@](O)(C(=O)C(=O)N3CCCC[C@H]3C(=O)O[C@H](/C(C)=C/[C@@H]3CC[C@@H](O)[C@H](OC)C3)[C@H](C)[C@@H](O)CC1=O)[C@H](C)C[C@@H]2OC` [FK506, tacrolimus, reference compound]: the “neurite processes compared with cells treated with NGF alone (micrographs, FIG. 8)” value in assay [1] is “longer”.

With `CO[C@H]1C[C@@H](C)C/C(C)=C/[C@@H](CCF)C(=O)C[C@H](O)[C@@H](C)[C@@H](/C(C)=C/[C@@H]2CC[C@@H](O)[C@H](OC)C2)OC(=O)[C@@H]2CCCCN2C(=O)C(=O)[C@]2(O)O[C@H]1[C@@H](OC)C[C@H]2C` [36-fluoro-FK520], the “in vitro immunosuppressive activity (interleukin-2 secreted from activated T-cells) as compared with the control group” value in assay [2] is “have the immunosuppressive activity”. Also, the “neurite processes compared with cells treated with NGF alone (micrographs, FIG. 8)” value in assay [1] is reported as “longer”. In addition, the neurite outgrowth activity entry in assay [1] (1 nM compound) is recorded as “strong neurite outgrowth activity”.

As for `CC[C@@H]1/C=C(\C)C[C@H](C)C[C@H](OC)[C@H]2O[C@@](O)(C(=O)C(=O)N3CCCC[C@H]3C(=O)O[C@H](/C(C)=C/[C@@H]3CC[C@@H](O)[C@H](OC)C3)[C@H](C)[C@@H](O)CC1=O)[C@H](C)C[C@@H]2OC` [FK520, ascomycin, reference compound], the “neurite processes compared with cells treated with NGF alone (micrographs, FIG. 8)” value in assay [1] is given as “exception”.

With `C=C(C)C[C@@H]1/C=C(\C)C[C@H](C)C[C@H](OC)[C@H]2O[C@@](O)(C(=O)C(=O)N3CCCC[C@H]3C(=O)O[C@H](/C(C)=C/[C@@H]3CC[C@@H](O)[C@H](OC)C3)[C@H](C)[C@@H](O)CC1=O)[C@H](C)C[C@@H]2OC` [36-methyl-FK506], in assay [2], the “in vitro immunosuppressive activity (interleukin-2 secretion) against FK506 and FK520” value is on record as “not improved”; the “in vitro immunosuppressive activity (interleukin-2 secreted from activated T-cells) as compared with the control group” value is “significant immunosuppressive activity; also recorded: have the immunosuppressive activity”. For the same molecule, the “greater effect on neurite outgrowth compared with FK506” value in assay [1] (SH-SY5Y treated with nerve growth factor (10 ng/ml), 1 nM compound, 96 hr) is around 20%. The “neurite processes compared with cells treated with NGF alone (micrographs, FIG. 8)” value in assay [1] is recorded as “longer”. The neurite outgrowth activity result in assay [1] (1 nM compound) is on record as “strong neurite outgrowth activity”.
